IC50 data for 14 molecules are collected here from ChEMBL document CHEMBL1131922, “Synthesis and biological evaluation of cryptophycin analogs with substitution at C-6 (fragment C region)” (Bioorg Med Chem Lett, 1999).

By IC50 is commonly meant the concentration needed to halve the response being measured. Lower therefore signals greater potency in that assay.

In this experiment the test system is CCRF-CEM. As to the kind of experiment: In vitro cytotoxicity against human leukemia CCRF-CEM cell line. It counts as functional, cell-based.
As to `COc1ccc(C[C@H]2NC(=O)/C=C/C[C@@H]([C@H](C)[C@H]3O[C@@H]3c3ccccc3)OC(=O)[C@H](CC(C)C)OC(=O)C3(CCCC3)CNC2=O)cc1Cl`, the IC50 worked out at 0.3 nM. That is a sub-nanomolar value.

In turn, `COc1ccc(C[C@H]2NC(=O)/C=C/C[C@@H]([C@H](C)[C@@H](O)[C@@H](Cl)c3ccccc3)OC(=O)[C@H](CC(C)C)NC(=O)C(C)(C)CNC2=O)cc1Cl` displayed an IC50 of 0.016 nM.

Molecule `COc1ccc(C[C@H]2NC(=O)/C=C/C[C@@H]([C@H](C)[C@@H](O)[C@@H](Cl)c3ccccc3)OC(=O)[C@H](CC(C)C)NC(=O)C3(CC3)CNC2=O)cc1Cl` had a half-inhibitory concentration (IC50) of 0.01 nM.

`CCCC1(CCC)CNC(=O)[C@@H](Cc2ccc(OC)c(Cl)c2)NC(=O)/C=C/C[C@@H]([C@H](C)[C@@H](O)[C@@H](Cl)c2ccccc2)OC(=O)[C@H](CC(C)C)OC1=O` yielded a half-inhibitory concentration (IC50) of 8.7 nM.

`COc1ccc(C[C@H]2NC(=O)/C=C/C[C@@H]([C@H](C)[C@H]3O[C@@H]3c3ccccc3)OC(=O)[C@H](CC(C)C)OC(=O)C(C)(C)CNC2=O)cc1Cl` [CRYPTOPHYCIN 52] had an IC50 of 0.02 nM. To `CCC1(CC)CNC(=O)[C@@H](Cc2ccc(OC)c(Cl)c2)NC(=O)/C=C/C[C@@H]([C@H](C)[C@@H](O)[C@@H](Cl)c2ccccc2)OC(=O)[C@H](CC(C)C)OC1=O` belongs 1.6 nM. In the case of `COc1ccc(C[C@H]2NC(=O)/C=C/C[C@@H]([C@H](C)[C@@H](O)[C@@H](Cl)c3ccccc3)OC(=O)[C@H](CC(C)C)OC(=O)C(C)(C)CNC2=O)cc1Cl`, the IC50 amounted to 0.05 nM. To `CCC1(CC)CNC(=O)[C@@H](Cc2ccc(OC)c(Cl)c2)NC(=O)/C=C/C[C@@H]([C@H](C)[C@H]2O[C@@H]2c2ccccc2)OC(=O)[C@H](CC(C)C)OC1=O` belongs 1.1 nM; to `COc1ccc(C[C@H]2NC(=O)/C=C/C[C@@H]([C@H](C)[C@@H](O)[C@@H](Cl)c3ccccc3)OC(=O)[C@H](CC(C)C)OC(=O)C3(CC3)CNC2=O)cc1Cl`, 0.014 nM; to `COc1ccc(C[C@H]2NC(=O)/C=C/C[C@@H]([C@H](C)[C@@H](O)[C@@H](Cl)c3ccccc3)OC(=O)[C@H](CC(C)C)OC(=O)C3(CCCCC3)CNC2=O)cc1Cl`, 110 nM. Regarding `COc1ccc(C[C@H]2NC(=O)/C=C/C[C@@H]([C@H](C)[C@H]3O[C@@H]3c3ccccc3)OC(=O)[C@H](CC(C)C)OC(=O)C3(CCCCC3)CNC2=O)cc1Cl`, the half-inhibitory concentration (IC50) was found to be 63 nM. This IC50 lies about 1.7-fold lower than the previous one. To `COc1ccc(C[C@H]2NC(=O)/C=C/C[C@@H]([C@H](C)[C@@H](O)[C@@H](Cl)c3ccccc3)OC(=O)[C@H](CC(C)C)OC(=O)C3(CCCC3)CNC2=O)cc1Cl` belongs 0.4 nM; to `COc1ccc(C[C@H]2NC(=O)/C=C/C[C@@H]([C@H](C)[C@H]3O[C@@H]3c3ccccc3)OC(=O)[C@H](CC(C)C)OC(=O)C3(CC3)CNC2=O)cc1Cl`, 0.16 nM. As to `CCCC1(CCC)CNC(=O)[C@@H](Cc2ccc(OC)c(Cl)c2)NC(=O)/C=C/C[C@@H]([C@H](C)[C@H]2O[C@@H]2c2ccccc2)OC(=O)[C@H](CC(C)C)OC1=O`, the 50% inhibitory concentration (IC50) was found to be 8.5 nM.
